Data set [1] deals with T1, Escherichia coli Vector control.
T1 construct: BW25113 empty pBAD18-Kan vector
The data set is described as follows: microbe, parasite or virus in culture. Set-up: broth microdilution MIC, growth of E. coli, CLSI guidelines. Conditions: empty pBAD18 vector. Here is the method:
(§1) The MICs of three antibiotics (tetracycline, minocycline, and tigecycline) for strains were determined using the microbroth dilution method and the results were interpreted according to the CLSI guidelines. For tigecycline, the breakpoint was interpreted according to the FDA criteria (susceptible, ≤2 mg/L; intermediate, 4 mg/L; resistant, ≥8 mg/L)[9]. E. coli strain ATCC 25922 was used as a quality control. The tet(X2) (WP_063856436.1), tet(X3) (WP024160783), and tet(X4) (WP094309310) genes were amplified from dairy cows’ clinical isolates[25] by PCR with primers listed in Supplementary Table 1. Then these genes were constructed into pBAD-18Kan vector and IPTG-inducible pET28b vector, respectively. The recombinant plasmids pBAD-18-tet(X2), pBAD-18-tet(X3) and pBAD-18-tet(X4) were transformed into E. coli BW25113 and followed by antimicrobial susceptibility tests. In addition, the recombinant plasmids pET28-6×His-tet(X2), pET28-6×His-tet(X3) and pET28-6×His-tet(X4) were transformed into E. coli strain BL21(DE3) for protein purification. Point mutations were introduced into the tet(X2) gene, tet(X3) gene and tet(X4) by using the QuickChange (Stratagene) commercial kit, following the manufacturer’s instructions, and confirmed by sequencing. Primers used in mutagenesis are also listed in Supplementary Table 1.

The test system of another data set is T2, E. coli 25922.
T2 construct: ATCC 25922
The data set can be described thus: microbe, parasite or virus in culture. Set-up: broth microdilution MIC, growth of E. coli, CLSI guidelines. Conditions: Escherichia coli. How it is done:
as §1

In data set [2] the test system is CN(C)c1cc(NC(=O)CNC(C)(C)C)c(O)c2c1C[C@H]1C[C@H]3[C@H](N(C)C)C(=O)C(C(N)=O)=C(O)[C@@]3(O)C(=O)C1=C2O. The data set can be described thus: purified protein. Conditions: 0.1 M TAPS pH 8.5, 5 mM MgCl2, 500 µM NADPH, ambient temperature. It is filed as biochemical, Escherichia coli.

In brackets after ≈: the same amount, converted by molar mass. Like-named read-outs stand apart in the source and are kept apart here.

Regarding `CN(C)c1ccc(O)c2c1C[C@H]1C[C@H]3[C@H](N(C)C)C(O)=C(C(N)=O)C(=O)[C@@]3(O)C(O)=C1C2=O` [minocycline], the figures for the MIC (in data set [1] (read-out: MIC (mg/L) / MIN); with E. coli 25922 (read-out: MIC (mg/L) / MIN)) were 1 mg/L (≈ 2.19 µM) and 0.25 mg/L (≈ 0.546 µM), respectively.
On to `CN(C)[C@@H]1C(O)=C(C(N)=O)C(=O)[C@@]2(O)C(O)=C3C(=O)c4c(O)cccc4[C@@](C)(O)[C@H]3C[C@@H]12` [tetracycline], for which the results for the MIC (in data set [1] (read-out: MIC (mg/L) / TET^a); in the data set with E. coli 25922 (read-out: MIC (mg/L) / TET^a)) were 2 mg/L (≈ 4.5 µM) and 1 mg/L (≈ 2.25 µM), respectively.
Take `CN(C)c1cc(NC(=O)CNC(C)(C)C)c(O)c2c1C[C@H]1C[C@H]3[C@H](N(C)C)C(=O)C(C(N)=O)=C(O)[C@@]3(O)C(=O)C1=C2O` [tigecycline]: the MIC in data set [1] (read-out: MIC (mg/L) / TGC) turned out to be 0.5 mg/L (≈ 0.854 µM); with E. coli 25922 (read-out: MIC (mg/L) / TGC), 0.25 mg/L (≈ 0.427 µM).
Usually Km stands for the concentration of substrate that gives half-maximal velocity. The term kcat denotes the number of substrate molecules converted per active site and unit of time at saturation. As a reminder, the kcat/Km is the turnover number divided by the Michaelis constant. Regarding Tet(X4) (Escherichia coli), in data set [2], the Km is listed as 1.73 ± 0.09 µM, the kcat stood at 2 ± 0.02 s⁻¹ and the kcat/Km was determined as 1.16e+06 M⁻¹ s⁻¹.

Source of the values: PMC9156754, “Functional and phylogenetic analysis of TetX variants to design a new classification system” (Communications Biology, 2022).
